Measurements from paper PMC5880808, “A lever-like transduction pathway for long-distance chemical- and mechano-gating of the mechanosensitive Piezo1 channel” (Nature Communications, 2018).

What was measured:
[1] = biological target: T1, mPiezo1 (Mus musculus, UniProt E2JF22); experiment: Whole-cell patch clamp, gap-free recording, compound puffed onto cells; assay type: cell-based; settings: for compound-evoked whole-cell current: mPiezo1-mRuby2-expressing HEK293T, 1 mM Jedi1 or 30 μM Yoda1 puffed
T1 construct: The full-length mPiezo1 has 2547 amino acids in each monomer; expressed in transfected cells; host or cells: HEK293T
T1 sequence (E2JF22 whole entry): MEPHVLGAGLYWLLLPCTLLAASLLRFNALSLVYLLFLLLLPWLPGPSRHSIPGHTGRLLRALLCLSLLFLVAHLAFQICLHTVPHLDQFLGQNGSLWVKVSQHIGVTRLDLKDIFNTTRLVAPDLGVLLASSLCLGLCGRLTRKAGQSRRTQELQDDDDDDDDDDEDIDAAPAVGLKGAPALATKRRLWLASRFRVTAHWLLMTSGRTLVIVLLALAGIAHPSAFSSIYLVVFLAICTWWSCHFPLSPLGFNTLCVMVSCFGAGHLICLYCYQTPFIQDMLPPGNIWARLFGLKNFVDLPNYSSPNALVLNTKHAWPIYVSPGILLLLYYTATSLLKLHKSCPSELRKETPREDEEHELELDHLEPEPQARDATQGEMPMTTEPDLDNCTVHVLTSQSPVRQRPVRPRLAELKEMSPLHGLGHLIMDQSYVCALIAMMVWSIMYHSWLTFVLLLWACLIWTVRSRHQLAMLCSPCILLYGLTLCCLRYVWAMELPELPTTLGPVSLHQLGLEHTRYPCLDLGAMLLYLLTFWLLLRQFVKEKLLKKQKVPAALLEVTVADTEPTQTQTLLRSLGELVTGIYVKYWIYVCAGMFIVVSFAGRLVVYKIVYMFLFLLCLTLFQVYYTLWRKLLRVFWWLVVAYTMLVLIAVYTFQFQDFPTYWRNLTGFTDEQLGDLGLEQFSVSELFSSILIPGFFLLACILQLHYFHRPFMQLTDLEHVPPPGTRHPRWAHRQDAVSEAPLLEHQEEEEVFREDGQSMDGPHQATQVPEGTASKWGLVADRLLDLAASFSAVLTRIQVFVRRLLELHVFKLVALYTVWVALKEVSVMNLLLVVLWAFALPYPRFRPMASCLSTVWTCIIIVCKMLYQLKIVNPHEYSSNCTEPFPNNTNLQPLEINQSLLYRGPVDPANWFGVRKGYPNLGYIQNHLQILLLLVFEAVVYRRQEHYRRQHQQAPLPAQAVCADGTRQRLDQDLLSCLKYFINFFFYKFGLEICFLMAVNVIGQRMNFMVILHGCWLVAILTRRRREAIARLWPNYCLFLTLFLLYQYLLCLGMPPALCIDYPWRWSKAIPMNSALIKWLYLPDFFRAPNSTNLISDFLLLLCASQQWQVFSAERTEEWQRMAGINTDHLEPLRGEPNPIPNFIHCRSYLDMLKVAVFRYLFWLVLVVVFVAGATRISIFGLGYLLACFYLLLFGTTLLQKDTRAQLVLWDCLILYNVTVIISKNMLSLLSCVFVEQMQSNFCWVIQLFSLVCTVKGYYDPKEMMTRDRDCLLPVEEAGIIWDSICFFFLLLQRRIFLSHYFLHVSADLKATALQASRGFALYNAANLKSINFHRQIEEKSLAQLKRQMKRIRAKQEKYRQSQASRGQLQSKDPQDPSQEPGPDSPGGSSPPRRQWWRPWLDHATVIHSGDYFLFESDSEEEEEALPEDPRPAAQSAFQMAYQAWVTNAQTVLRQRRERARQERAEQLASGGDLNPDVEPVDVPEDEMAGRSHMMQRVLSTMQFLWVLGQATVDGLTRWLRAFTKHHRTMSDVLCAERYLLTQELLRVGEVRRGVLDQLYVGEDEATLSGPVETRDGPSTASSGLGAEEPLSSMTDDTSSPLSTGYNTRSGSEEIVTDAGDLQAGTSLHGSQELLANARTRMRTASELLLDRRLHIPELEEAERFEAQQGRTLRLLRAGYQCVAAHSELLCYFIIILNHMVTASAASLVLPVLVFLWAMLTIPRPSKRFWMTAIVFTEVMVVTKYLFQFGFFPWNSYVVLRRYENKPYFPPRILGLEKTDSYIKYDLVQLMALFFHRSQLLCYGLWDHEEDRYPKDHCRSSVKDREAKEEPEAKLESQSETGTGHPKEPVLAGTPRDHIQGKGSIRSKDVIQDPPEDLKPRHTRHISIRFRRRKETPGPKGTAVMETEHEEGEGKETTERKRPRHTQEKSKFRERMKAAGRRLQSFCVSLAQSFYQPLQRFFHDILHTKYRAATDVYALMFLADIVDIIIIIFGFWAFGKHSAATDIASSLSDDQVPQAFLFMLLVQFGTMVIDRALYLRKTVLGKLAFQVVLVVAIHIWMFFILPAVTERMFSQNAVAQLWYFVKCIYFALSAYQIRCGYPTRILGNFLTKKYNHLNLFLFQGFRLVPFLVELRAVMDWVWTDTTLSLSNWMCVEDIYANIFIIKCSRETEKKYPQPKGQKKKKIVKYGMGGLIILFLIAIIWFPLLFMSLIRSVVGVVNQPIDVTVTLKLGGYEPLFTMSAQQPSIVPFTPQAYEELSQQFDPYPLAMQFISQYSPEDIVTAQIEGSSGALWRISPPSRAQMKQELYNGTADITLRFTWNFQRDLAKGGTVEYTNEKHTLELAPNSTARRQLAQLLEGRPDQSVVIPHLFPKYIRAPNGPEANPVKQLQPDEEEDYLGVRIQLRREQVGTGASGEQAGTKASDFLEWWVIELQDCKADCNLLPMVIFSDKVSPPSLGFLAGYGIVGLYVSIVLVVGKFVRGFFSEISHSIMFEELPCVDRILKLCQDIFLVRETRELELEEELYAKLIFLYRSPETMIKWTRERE
Procedure: (§1) Protocols for HEK293T cell culture, transient transfection, and patch-clamp experiments with an Axopatch 200B amplifier (Axon Instruments) or HEKA EPC10 were essentially similar to how previously described[6],[8]. […] The extracellular solution was composed of (in mM) 133 NaCl, 3 KCl, 2.5 CaCl2, 1 MgCl2, 10 HEPES (pH 7.3 with NaOH), and 10 glucose. All experiments were carried out at room temperature. Currents were sampled at 20 kHz, filtered at 2 kHz using the Clampex 10.4 software (Axon Instruments) or Patchmaster software. Leak currents before mechanical stimulations were subtracted offline from the current traces.
Stock solutions of Jedi1 (100 mM), Jedi2 (100 mM), and Yoda1 (30 mM) were solubilized in DMSO and diluted to the desired final concentrations as indicated in the figure legends using external or internal solutions. In Figs. 3a, 5b, and 6e, the compound solutions were puffed onto the cells using a multichannel perfusion system (MPS-2, World Precision Instruments) while continuously recording using a gap-free mode. In other conditions, the compounds were directly added to the recording chamber or pipette solution, and the currents were recorded within 10 min. In Figs. 5b and 6e, we used the Piezo1-KO-HEK cell line in which the endogenous Piezo1 gene is disrupted.

[2] = test system: mPiezo1 loop deletion mutants ΔL15-16 (657-677) and ΔL19-20 (870–921); experiment: Patch clamp (chemical-, poking- and stretching-induced currents), loop deletion mutants; assay type: cell-based, mouse
Procedure: as §1
Mechanical stimulation was delivered to the cell during the patch-clamp recording at an angle of 80° using a fire-polished glass pipette (tip diameter 3–4 μm) as previously described[5],[6]. […] A series of mechanical steps in 1 μm increments was applied every 20 s and currents were recorded at a holding potential of −70 mV. […] In the step-wise poking experiment, the patch was readily lost when the cell was broken at the end of the poking. […]
(§2) Stretch-activated currents were recorded in the cell-attached patch-clamp configuration as previously described. […] Stretch-activated channels were recorded at a holding potential of −80 mV with pressure steps from 0 to −100 mm Hg (−10 mm Hg increments), and 4–11 recording traces were averaged per cell for analysis. […]

[3] = biological target: T2, mPiezo1 L1342A/L1345A mutant (Mus musculus, UniProt E2JF22, L1342A/L1345A); experiment: Patch clamp (chemical-induced and stretch-induced currents), L1342A/L1345A mutant; assay type: cell-based; settings: Piezo1-KO-HEK cells for chemical-induced currents
T2 construct: The full-length mPiezo1 has 2547 amino acids in each monomer; expressed in transfected cells
T2 sequence (E2JF22 whole entry L1342A/L1345A): as the sequence (E2JF22 whole entry) above, with L1342A, L1345A counted along it
Procedure: as §1
Stock solutions of Jedi1 (100 mM), Jedi2 (100 mM), and Yoda1 (30 mM) were solubilized in DMSO and diluted to the desired final concentrations as indicated in the figure legends using external or internal solutions. […] In other conditions, the compounds were directly added to the recording chamber or pipette solution, and the currents were recorded within 10 min. […]
as §2

[4] = biological target: T3, mPiezo1 Q1344A (Mus musculus, UniProt E2JF22, Q1344A); experiment: Fura-2 single-cell Ca2+ imaging, Q1344A mutant; assay type: cell-based; settings: 1 mM Jedi1, 30 µM Yoda1
T3 construct: The full-length mPiezo1 has 2547 amino acids in each monomer; mCherry; expressed in transfected cells; host or cells: HEK293T
T3 sequence (E2JF22 whole entry Q1344A): as the sequence (E2JF22 whole entry) above, with Q1344A counted along it
Procedure: Fura-2 single-cell Ca^2+ imaging was performed according to the previous protocol. In brief, mCherry-Piezo1 cDNA (1 μg)-transfected HEK293T cells were plated onto 12-mm round glass coverslips, which were coated with poly-D-lysine and placed in 24-well plates, and subject to Fura-2 single-cell Ca^2+ imaging about 36 h post transfection. Cells were washed with buffer containing 1× HBSS (1.3 mM Ca^2+) and 10 mM HEPES (pH 7.2), incubated with 2.5 μM Fura-2 and 0.05% Pluronic F-127 (Life Technologies) for 30 min, then washed again with the previously mentioned buffer. The coverslip was mounted into an inverted Nikon-Tie microscope equipped with a CoolSNAP charge-coupled devise (CCD) camera and Lambda XL light box (Sutter Instrument), and mCherry-positive and -negative cells were selected for measurement of the 340/380 ratio with a ×20 objective (numerical aperture 0.75) using the MetaFluor Fluorescence Ratio Imaging software (Molecular Device).

[5] = biological target: T1, mPiezo1; experiment: Cell-attached patch with pressure clamp (stretch-activated currents); assay type: cell-based; settings: absence of externally applied pressure, compound in pipette, vs DMSO

Compound | compound-evoked whole-cell current [1] | potentiation of stretching-induced currents of loop deletion mutants ([2]; ΔL15-16 and ΔL19-20, −80 mV) | inward currents, stretching-current relationship and P50 of the L1342A/L1345A mutant [3] | effect of the Q1344A mutation on compound-induced Ca2+ responses [4] | fold change of NPo [5] [fold] | onset and decay of evoked currents relative to Yoda1-induced currents ([1]; 1 mM Jedi1 vs 30 μM Yoda1) | whole-cell currents or potentiation of poking- or stretching-induced currents in loop deletion mutants ([2]; ΔL15-16 and ΔL19-20 mutant-transfected cells)
Clc1cccc(Cl)c1CSc1nnc(-c2cnccn2)s1 [Yoda1, reference compound] | evoked inward currents | failed to potentiate | neither elicited inward currents | did not affect | 3.1 ± 1.3 |  | 
Cc1oc(-c2ccccc2)cc1C(=O)O [Jedi1] | evoked inward currents |  | neither elicited inward currents | did not affect | 4.7 ± 1.4 | more rapid onset and faster decay | failed to elicit
